Measurements reported in patent publication US5225437A, “1,2,4-trioxane compounds having antimalarial activity” (The Johns Hopkins University, priority 1992, dated 1993).
“Also recorded” adds a separate entry of the source. Where two headings read alike, the source gives them in different places.

How the values were obtained:
D-6 Sierra Leone Clone = details: cited from earlier work; for IC50: Table V, read-out: Fifty Percent Inhibitory Concentrations, D-6 Sierra Leone Clone; for Artemisinin Indices, D-6 Sierra Leone Clone: intrinsic equimolar activity relative to the simultaneous artemisinin control
W-2 Indochine Clone = details: cited from earlier work; for IC50: Table V, read-out: Fifty Percent Inhibitory Concentrations, W-2 Indochine Clone; for Artemisinin Indices, W-2 Indochine Clone: intrinsic equimolar activity relative to the simultaneous artemisinin control
[1] = test system: P. falciparum D-6 African Clone; assay: anti-malarial in vitro testing against P. falciparum clones, D-6 African clone; type: cell-based; details: Table VI, D-6 value over W-2 value
[2] = test system: P. falciparum malaria parasite clone Indochina (W-2); assay: in vitro susceptibility testing, uptake of tritiated hypoxanthine as index of inhibition of parasite growth, Indochina (W-2) clone; type: cell-based; details: Plasmodium falciparum; for IC50: read-out: W2 IC50
[3] = test system: P. falciparum malaria parasite clone Sierra Leone (D-6); assay: in vitro susceptibility testing, uptake of tritiated hypoxanthine as index of inhibition of parasite growth, Sierra Leone (D-6) clone; details: Plasmodium falciparum; for IC50: read-out: D6 IC50
[4] = test system: P. falciparum malaria parasite clones; assay: anti-malarial activity in words (overall, both P. falciparum clones)
[5] = compared with known anti-malarial drugs
[6] = Table III, INDOCHINA CLONE (W-2), read-out: IC90
[7] = Table IV, W2, read-out: W2 IC90

Row | SMILES | IC50 (D-6 Sierra Leone Clone) [nM] | Artemisinin Indices, D-6 Sierra Leone Clone (D-6 Sierra Leone Clone) | IC50 (W-2 Indochine Clone) [nM] | Artemisinin Indices, W-2 Indochine Clone (W-2 Indochine Clone) | IC50 ([2]; Table IV, W2) [nM] | IC50 [3] [nM] | IC90 [3] [nM] | also measured
1 | CCO[C@@H]1O[C@@H]2O[C@@]3(C)CC[C@H]4[C@H](C)CC[C@@H]([C@H]1C)[C@@]24OO3 [Arteether (alpha)] | 4.18 | 2.52 | 3.07 | 2.08 |  |  |  | 
2 | CCO[C@H]1O[C@@H]2O[C@@]3(C)CC[C@H]4[C@H](C)CC[C@@H]([C@H]1C)[C@@]24OO3 [Arteether (beta)] | 4.07 | 2.58 | 2.97 | 2.18 |  |  |  | 
3 | C[C@H]1[C@@H](OCc2ccc(C(=O)O)cc2)O[C@@H]2O[C@@]3(C)CC[C@H]4[C@H](C)CC[C@@H]1[C@@]24OO3 [Artelinic Acid] | 9.73 | 1.08 | 3.3 | 1.94 |  |  |  | 
4 | CO[C@H]1O[C@@H]2O[C@@]3(C)CC[C@H]4[C@H](C)CC[C@@H]([C@H]1C)[C@@]24OO3 [Artemether] | 4.49 | 2.34 | 3.34 | 1.92 |  |  |  | 
5 | C[C@@H]1CC[C@H]2[C@@H](C)C(=O)O[C@@H]3O[C@@]4(C)CC[C@@H]1[C@]32OO4 [Artemisinin, artemisinin] | 10.5 | 1.00 | 6.41 | 1.00 | 0.68 | 0.69 |  | Ratio of D-6/W-2 [1]: 2.4
6 | CCN(CC)CCCC(C)Nc1ccnc2cc(Cl)ccc12 (stereo not shown) [Chloroquine] | 10.8 | 0.97 | 100 | 0.06 |  | 1.21 |  | Ratio of D-6/W-2 [1]: 0.1; IC50 [2]: 61.7 nM
7 | COC(=O)c1ccc(C(=O)OCCC2CCCC3CCC4(C)OOC23C(OC)O4)cc1 (stereo not shown) [Compound 19] |  |  |  |  |  |  |  | anti-malarial activity / potency in words [4, 5]: substantial improvement over artemisinin; also recorded: comparable in potency to arteether; also recorded: comparable in potency to artemether; also recorded: considerably higher potency than the clinically used Chinese drug, artemisinin
8 | COC1OC2(C)CCC3CCCC(CCOC(=O)c4ccc(C(=O)OCCN(C)C)cc4)C31OO2 (stereo not shown) [Compound 20] |  |  |  |  |  |  | 20.4 | IC90 [2, 6]: 24.7 nM
9 | CCN(CC)C(=O)c1ccc(C(=O)OCCC2CCCC3CCC4(C)OOC23C(OC)O4)cc1 (stereo not shown) [Compound 21] |  |  |  |  |  |  |  | anti-malarial activity / potency in words [4, 5]: substantial improvement over artemisinin; also recorded: comparable in potency to arteether; also recorded: comparable in potency to artemether; also recorded: considerably higher potency than the clinically used Chinese drug, artemisinin
10 | COC1OC2(C)CCC3CCCC(CCOC(=O)c4ccc(C(=O)OCCC5CCCC6CCC7(C)OOC56C(OC)O7)cc4)C31OO2 (stereo not shown) [Compound 22] |  |  |  |  |  |  | 857 | 
11 | COC1OC2(C)CCC3CCCC(CCOS(=O)(=O)c4ccc(C)cc4)C31OO2 (stereo not shown) [Compound 23] |  |  |  |  |  |  | 19 | IC90 [2, 6]: 10.2 nM
12 | COC(=O)c1ccccc1S(=O)(=O)OCCC1CCCC2CCC3(C)OOC12C(OC)O3 (stereo not shown) [Compound 24] |  |  |  |  |  |  | 58.8 | IC90 [2, 6]: 19.7 nM
13 | COC1OC2(C)CCC3CCCC(CCOC(=O)CNC(=O)OC(C)(C)C)C31OO2 (stereo not shown) [Compound 25] |  |  |  |  |  |  | 4.43 | anti-malarial activity / potency in words [4, 5]: substantial improvement over artemisinin
14 | COC1OC2(C)CCC3CCCC(CCOC(=O)N(C)C)C31OO2 (stereo not shown) [Compound 26] |  |  |  |  |  |  | 3.93 | IC90 [2, 6]: 1.29 nM; anti-malarial activity / potency in words [4, 5]: particularly potent
15 | COC1OC2(C)CCC3CCCC(CCOS(=O)(=O)N(C)C)C31OO2 (stereo not shown) [Compound 27] |  |  |  |  |  |  | 30.2 | IC90 [2, 6]: 23 nM
16 | CCOP(=O)(OCC)OCCC1CCCC2CCC3(C)OOC12C(OC)O3 (stereo not shown) [Compound 28] |  |  |  |  |  |  | 0.99 | anti-malarial activity / potency in words [4]: substantial improvement over artemisinin; also recorded: comparable in potency to arteether; also recorded: higher potency than artemisinin; also recorded: particularly potent

Row | SMILES | IC50 (D-6 Sierra Leone Clone) [nM] | Artemisinin Indices, D-6 Sierra Leone Clone (D-6 Sierra Leone Clone) | IC50 (W-2 Indochine Clone) [nM] | Artemisinin Indices, W-2 Indochine Clone (W-2 Indochine Clone) | IC50 ([2]; Table IV, W2) [nM] | IC50 [3] [nM] | IC90 [3] [nM] | also measured
17 | COC1OC2(C)CCC3CCCC(CCOC(=O)N(c4ccccc4)c4ccccc4)C31OO2 (stereo not shown) [Compound 31] |  |  |  |  | < 0.16 | 0.27 |  | IC90 [2, 7]: < 0.18 nM; IC90 ([3]; read-out: D6 IC90): 2.25 nM; anti-malarial activity / potency in words [4, 5]: substantial improvement over artemisinin; also recorded: comparable in potency to arteether; also recorded: higher potency than artemisinin; also recorded: particularly potent
18 | COC1OC2(C)CCC3CCCC(CCOS(=O)(=O)c4cccc5c(N(C)C)cccc45)C31OO2 (stereo not shown) [Compound 32] |  |  |  |  | 1.04 | 5.16 |  | IC90 [2, 7]: 7.17 nM; IC90 ([3]; read-out: D6 IC90): 10 nM
19 | CCN(CC)C(=O)OCCC1CCCC2CCC3(C)OOC12C(OC)O3 (stereo not shown) [Compound 34] |  |  |  |  | < 0.28 | 0.39 |  | IC90 [2, 7]: < 0.28 nM; IC90 ([3]; read-out: D6 IC90): 1.18 nM; anti-malarial activity / potency in words [4, 5]: comparable in potency to arteether; also recorded: higher potency than artemisinin; also recorded: particularly potent
20 | COC1OC2(C)CCC3CCCC(CCOC(=O)c4ccc(C(=O)O)cc4)C31OO2 (stereo not shown) [Compound 36] |  |  |  |  | 24.2 | 256 | 115 | IC90 [2, 6]: 46.1 nM; IC90 [2, 7]: 979 nM; IC90 ([3]; read-out: D6 IC90): 516 nM
21 | COCCC1CCCC2CCC3(C)OOC12C(OC)O3 (stereo not shown) [Compound 101] |  |  |  |  |  |  | 13.7 | IC90 [2, 6]: 4.62 nM
22 | COC1OC2(C)CCC3CCCC(CCOCc4ccccc4)C31OO2 (stereo not shown) [Compound 102] |  |  |  |  | 0.25 | 1.22 |  | IC90 [2, 7]: 1.53 nM; IC90 ([3]; read-out: D6 IC90): 3.27 nM; anti-malarial activity / potency in words [4, 5]: particularly potent anti-malarial activity
23 | CCOP(=O)(COCCC1CCCC2CCC3(C)OOC12C(OC)O3)OCC (stereo not shown) [Compound 103] |  |  |  |  |  | 3.03 |  | IC50 [2]: 0.96 nM; IC90 ([2]; read-out: W2 IC90): 8.2 nM; IC90 ([3]; read-out: D6 IC90): 29.9 nM
24 | C=CCOCCC1CCCC2CCC3(C)OOC12C(OC)O3 (stereo not shown) [Compound 104] |  |  |  |  | 0.32 | 1.08 |  | IC90 [2, 7]: 2.37 nM; IC90 ([3]; read-out: D6 IC90): 15.7 nM; anti-malarial activity / potency in words [4, 5]: particularly potent anti-malarial activity
25 | COC1OC2(C)CCC3CCCC(CCOCc4c(C)noc4C)C31OO2 (stereo not shown) [Compound 105] |  |  |  |  | 0.34 | 1.82 |  | IC90 [2, 7]: 1.64 nM; IC90 ([3]; read-out: D6 IC90): 19.1 nM; anti-malarial activity / potency in words [4, 5]: particularly potent anti-malarial activity
26 | COC1OC2(C)CCC3CCCC(CCI)C31OO2 (stereo not shown) [Compound 301] |  |  |  |  | < 0.32 | 1.14 |  | IC90 [2, 7]: < 0.32 nM; IC90 ([3]; read-out: D6 IC90): 6.33 nM
27 | C[C@H]1[C@@H](O)O[C@@H]2O[C@@]3(C)CC[C@H]4[C@H](C)CC[C@@H]1[C@@]24OO3 [Dihydroartemisinin] | 1.83 | 5.75 | 1.79 | 3.58 |  |  |  | 
28 | CCCCN(CCCC)CCC(O)c1cc2c(Cl)cc(Cl)cc2c2cc(C(F)(F)F)ccc12 (stereo not shown) [Halofantrine] | 7.8 | 1.35 | 0.76 | 8.43 |  |  |  | 
29 | OC(c1cc(C(F)(F)F)nc2c(C(F)(F)F)cccc12)C1CCCCN1 (stereo not shown) [Mefloquine] | 33.4 | 0.31 | 5.75 | 1.11 | 0.11 | 3.53 |  | 
30 | CCc1nc(N)nc(N)c1-c1ccc(Cl)cc1 [Pyrimethamine] | 0.4 | 26.11 | 176 | 0.03 | > 250 | 1.08 |  | 
31 | C=C[C@H]1C[N@@]2CC[C@H]1C[C@H]2[C@H](O)c1ccnc2ccc(OC)cc12 [Quinine] |  | 0.09 |  |  |  |  |  | 
32 | COc1ncnc(NS(=O)(=O)c2ccc(N)cc2)c1OC [Sulfadoxine] | 89.4 | 0.11 | 80600 | < 0.01 |  |  |  | 
